According to ChEMBL document CHEMBL1201862, “PubChem BioAssay data set” (2004):
Values joined by “and” are separate entries in the source; they are usually repeats but may differ in a detail not shown here. Identical values can stand only once. Active and inactive are the calls of the source.

Tests used:
Melanocortin receptor 4 = Melanocortin receptor 4 (Homo sapiens, UniProt P32245); type: functional, cell-based;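 further: Cell-based assay with luminescence read-out, confirmatory dose-response testing for agonist activity of biased ligands at MC4R; human U2OS cells with tagged receptor and beta-arrestin; potency of agonists that increase receptor coupling to beta-arrestin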
[1] = biological target: T1, DNA dC->dU-editing enzyme APOBEC-3A (Homo sapiens, UniProt P31941); assay: A3A deaminase inhibition for selectivity – biochemical, dose response (AID 504722); type: functional
[2] = biological target: T1, DNA dC->dU-editing enzyme APOBEC-3A; assay: SAR analysis of small molecule inhibitors of APOBEC3A DNA Deaminase via a fluorescence-based single-stranded DNA deaminase assay.; type: functional; conditions: read-out: IC50_Mean
[3] = biological target: T2, Heat shock factor protein 1 (Mus musculus, UniProt P38532); assay: decrease of HSF1-responsive luciferase luminescence – cell-based, NIH3T3, dose retest, confirmation (AID 2382); type: functional;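 further: NIH3T3 fibroblasts with HSF1-driven luciferase reporter stressed by proteasome inhibitor MG132; luminescence from HSF1-driven luciferase expression after 8 hours of MG132 stress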
T2 sequence (P38532 whole entry): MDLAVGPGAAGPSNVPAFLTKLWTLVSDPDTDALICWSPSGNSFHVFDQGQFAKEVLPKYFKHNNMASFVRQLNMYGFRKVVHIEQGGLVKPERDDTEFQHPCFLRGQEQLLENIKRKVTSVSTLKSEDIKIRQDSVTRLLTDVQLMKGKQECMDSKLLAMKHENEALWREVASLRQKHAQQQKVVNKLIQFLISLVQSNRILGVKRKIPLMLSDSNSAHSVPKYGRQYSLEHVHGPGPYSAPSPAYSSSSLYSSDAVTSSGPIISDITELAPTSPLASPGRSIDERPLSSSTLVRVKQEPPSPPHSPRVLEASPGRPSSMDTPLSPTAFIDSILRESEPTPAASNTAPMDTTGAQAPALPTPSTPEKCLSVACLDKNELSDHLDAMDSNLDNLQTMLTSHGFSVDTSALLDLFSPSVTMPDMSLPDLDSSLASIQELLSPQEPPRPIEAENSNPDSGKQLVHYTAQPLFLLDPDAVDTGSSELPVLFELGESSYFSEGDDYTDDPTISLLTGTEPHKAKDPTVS

[4] = biological target: T3, DNA dC->dU-editing enzyme APOBEC-3G (Homo sapiens, UniProt Q9HC16); assay: SAR analysis of small molecule inhibitors of APOBEC3G DNA Deaminase via a fluorescence-based single-stranded DNA deaminase assay - Set 2.; type: functional; conditions: read-out: IC50_Mean
[5] = biological target: T1, DNA dC->dU-editing enzyme APOBEC-3A; assay: SAR analysis of small molecule inhibitors of APOBEC3A DNA Deaminase via a fluorescence-based single-stranded DNA deaminase assay - Set 2.; type: functional; conditions: read-out: IC50_Mean
[6] = biological target: T3, DNA dC->dU-editing enzyme APOBEC-3G; assay: Dose Response confirmation of small molecule APOBEC3G DNA Deaminase Inhibitors via a fluorescence-based single-stranded DNA deaminase assay. [Related pubchem assays (depositor defined):AID493012, AID493028]; type: functional
[7] = biological target: T3, DNA dC->dU-editing enzyme APOBEC-3G; assay: inhibition of APOBEC3G ssDNA deamination – biochemical, fluorescence, single-stranded DNA substrate, SAR follow-up (AID 602136); type: functional; conditions: read-out: IC50_Mean
[8] = biological target: T4, Apoptotic protease-activating factor 1 (Homo sapiens, UniProt O14727); assay: SAR analysis of small molecule Activators of Apaf-1 in a Fluorescent assay.; type: functional; conditions: read-out: EC50_Mean;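 further: caspase-3 cleavage of fluorogenic Rh110 DEVD substrate downstream of apoptosome activation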
T4 sequence (O14727 whole entry): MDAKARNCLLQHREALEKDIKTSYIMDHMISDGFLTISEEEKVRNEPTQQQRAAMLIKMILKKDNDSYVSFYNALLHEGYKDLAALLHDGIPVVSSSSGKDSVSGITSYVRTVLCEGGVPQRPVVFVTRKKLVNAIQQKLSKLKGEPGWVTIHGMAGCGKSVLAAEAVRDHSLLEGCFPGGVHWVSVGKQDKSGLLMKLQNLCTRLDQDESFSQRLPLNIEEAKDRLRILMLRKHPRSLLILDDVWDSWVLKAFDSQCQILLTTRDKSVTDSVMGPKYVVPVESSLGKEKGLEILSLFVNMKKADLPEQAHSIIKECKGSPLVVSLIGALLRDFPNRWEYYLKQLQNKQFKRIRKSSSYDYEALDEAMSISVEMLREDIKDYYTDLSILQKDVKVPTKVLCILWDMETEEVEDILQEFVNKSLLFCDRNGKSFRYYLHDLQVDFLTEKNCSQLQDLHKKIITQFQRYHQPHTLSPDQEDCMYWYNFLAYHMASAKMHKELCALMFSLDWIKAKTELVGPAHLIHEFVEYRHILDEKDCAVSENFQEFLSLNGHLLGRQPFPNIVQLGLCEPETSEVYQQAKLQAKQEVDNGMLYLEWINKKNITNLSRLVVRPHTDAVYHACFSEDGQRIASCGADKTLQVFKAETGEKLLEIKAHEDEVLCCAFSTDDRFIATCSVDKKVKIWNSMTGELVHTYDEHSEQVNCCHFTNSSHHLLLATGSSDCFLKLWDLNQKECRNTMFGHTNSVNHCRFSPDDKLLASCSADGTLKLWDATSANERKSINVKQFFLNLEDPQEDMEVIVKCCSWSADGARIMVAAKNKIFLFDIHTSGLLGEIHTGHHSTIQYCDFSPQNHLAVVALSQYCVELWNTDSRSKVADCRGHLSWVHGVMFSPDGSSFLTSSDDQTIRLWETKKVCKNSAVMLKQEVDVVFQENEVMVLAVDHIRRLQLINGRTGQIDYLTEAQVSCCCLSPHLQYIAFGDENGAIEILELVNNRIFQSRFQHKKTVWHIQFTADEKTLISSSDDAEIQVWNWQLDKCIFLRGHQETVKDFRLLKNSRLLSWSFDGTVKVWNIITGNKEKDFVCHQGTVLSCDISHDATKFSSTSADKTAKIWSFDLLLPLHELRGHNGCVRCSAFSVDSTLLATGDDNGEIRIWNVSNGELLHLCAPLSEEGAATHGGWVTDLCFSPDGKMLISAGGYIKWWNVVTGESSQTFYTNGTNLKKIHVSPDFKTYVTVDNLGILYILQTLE

[9] = Luminescence Cell-Based Dose Response HTS to Identify Activators of Luciferase Translation or Activity in H4 […] Cells. [Related pubchem assays: 1829 (Project Summary), 1814 (Primary HTS)]; type: functional
[10] = biological target: T5, High affinity choline transporter 1 (Homo sapiens, UniProt Q9GZV3); assay: human choline transporter blockers, potency – cell-based, 5-point CRC, membrane potential dye, dose response (AID 504840); type: functional
T5 sequence (Q9GZV3 whole entry): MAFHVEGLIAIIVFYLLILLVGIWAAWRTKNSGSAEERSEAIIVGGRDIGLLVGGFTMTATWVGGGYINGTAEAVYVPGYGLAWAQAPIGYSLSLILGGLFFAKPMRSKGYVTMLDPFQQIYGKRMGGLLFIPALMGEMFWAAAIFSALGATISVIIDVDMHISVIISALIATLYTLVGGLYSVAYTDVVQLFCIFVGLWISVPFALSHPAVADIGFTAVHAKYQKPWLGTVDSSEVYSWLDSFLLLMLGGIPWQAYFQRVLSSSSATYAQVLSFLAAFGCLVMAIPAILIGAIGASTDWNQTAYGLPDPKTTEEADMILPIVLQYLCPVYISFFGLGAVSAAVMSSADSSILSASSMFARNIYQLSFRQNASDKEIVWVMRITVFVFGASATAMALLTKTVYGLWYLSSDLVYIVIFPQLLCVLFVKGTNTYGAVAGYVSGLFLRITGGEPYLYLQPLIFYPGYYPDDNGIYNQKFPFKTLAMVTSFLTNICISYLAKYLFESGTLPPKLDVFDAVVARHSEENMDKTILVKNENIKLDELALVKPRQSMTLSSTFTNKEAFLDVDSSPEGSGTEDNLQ

[11] = Luminescence Cell-Based Dose Confirmation HTS to Identify Activators of 5'UTR Stem-Loop Driven Alpha-Synuclein mRNA Translation in H4 Neuroglioblastoma Cells. [Related pubchem assays: 1829 (Project Summary), 1814 (Primary HTS)]; type: functional
H4 = assay: Luminescence Cell-Based Dose Response HTS to Identify Activators of 5'UTR Stem-Loop Driven Prion Protein mRNA Translation in H4 Neuroglioblastoma Cells. [Related pubchem assays: 1829 (Project Summary), 1814 (Primary HTS)]; type: functional; conditions: Homo sapiens
[12] = biological target: T5, High affinity choline transporter 1; assay: human choline transporter blockers, potency – cell-based, 10-point CRC, membrane potential dye, dose response (AID 588401); type: functional;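 further: membrane potential dye fluorescence of choline-evoked depolarization via CHT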
[13] = biological target: T1, DNA dC->dU-editing enzyme APOBEC-3A; assay: Dose Response confirmation of small molecule APOBEC3A DNA Deaminase Inhibitors via a fluorescence-based single-stranded DNA deaminase assay. [Related pubchem assays (depositor defined):AID493011, AID493024]; type: functional
[14] = biological target: T3, DNA dC->dU-editing enzyme APOBEC-3G; type: functional
[15] = biological target: DNA (cytosine-5)-methyltransferase 1 (Homo sapiens, UniProt P26358); assay: inhibition of DNA methylation by DNMT1 – biochemical, fluorescent molecular beacon, confirmation (AID 602386); type: functional
[16] = biological target: T6, Carboxy-terminal domain RNA polymerase II polypeptide A small phosphatase 1 (Homo sapiens, UniProt Q9GZU7); assay: CTDSP1 inhibitors, concentration-response, biochemical, absorbance readout, ultra-high-throughput screen actives (AID 540297); type: functional
T6 sequence (Q9GZU7 whole entry): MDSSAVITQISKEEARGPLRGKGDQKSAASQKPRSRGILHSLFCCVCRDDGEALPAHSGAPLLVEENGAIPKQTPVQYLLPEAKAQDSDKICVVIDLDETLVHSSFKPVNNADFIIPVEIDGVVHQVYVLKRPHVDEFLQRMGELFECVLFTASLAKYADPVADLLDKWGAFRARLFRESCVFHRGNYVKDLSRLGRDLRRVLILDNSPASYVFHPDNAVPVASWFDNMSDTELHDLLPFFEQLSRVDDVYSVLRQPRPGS

[17] = biological target: T7, Rac GTPase-activating protein 1 (Homo sapiens, UniProt Q9H0H5); assay: blockers of MgcRacGAP-driven Rac1 GTP hydrolysis – biochemical, ADP Hunter fluorescence, primary and confirmatory, confirmation (AID 624330); type: functional
T7 sequence (Q9H0H5 whole entry): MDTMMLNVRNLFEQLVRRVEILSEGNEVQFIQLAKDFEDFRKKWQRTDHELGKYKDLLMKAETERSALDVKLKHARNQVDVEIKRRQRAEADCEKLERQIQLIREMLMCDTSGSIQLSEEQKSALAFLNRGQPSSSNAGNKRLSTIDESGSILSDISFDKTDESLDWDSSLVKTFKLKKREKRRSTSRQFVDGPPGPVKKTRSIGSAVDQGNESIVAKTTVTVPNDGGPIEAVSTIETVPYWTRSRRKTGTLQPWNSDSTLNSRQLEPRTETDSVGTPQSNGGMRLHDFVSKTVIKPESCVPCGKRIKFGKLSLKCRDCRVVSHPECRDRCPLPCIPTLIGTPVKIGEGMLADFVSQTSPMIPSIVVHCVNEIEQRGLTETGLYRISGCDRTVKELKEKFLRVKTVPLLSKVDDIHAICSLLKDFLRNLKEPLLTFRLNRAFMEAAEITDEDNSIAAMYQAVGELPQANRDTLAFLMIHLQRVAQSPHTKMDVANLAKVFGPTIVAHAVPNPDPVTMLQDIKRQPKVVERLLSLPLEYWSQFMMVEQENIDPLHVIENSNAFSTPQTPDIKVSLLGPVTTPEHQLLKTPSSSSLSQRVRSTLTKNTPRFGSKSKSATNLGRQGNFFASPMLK

T3 sequence (Q9HC16 whole entry): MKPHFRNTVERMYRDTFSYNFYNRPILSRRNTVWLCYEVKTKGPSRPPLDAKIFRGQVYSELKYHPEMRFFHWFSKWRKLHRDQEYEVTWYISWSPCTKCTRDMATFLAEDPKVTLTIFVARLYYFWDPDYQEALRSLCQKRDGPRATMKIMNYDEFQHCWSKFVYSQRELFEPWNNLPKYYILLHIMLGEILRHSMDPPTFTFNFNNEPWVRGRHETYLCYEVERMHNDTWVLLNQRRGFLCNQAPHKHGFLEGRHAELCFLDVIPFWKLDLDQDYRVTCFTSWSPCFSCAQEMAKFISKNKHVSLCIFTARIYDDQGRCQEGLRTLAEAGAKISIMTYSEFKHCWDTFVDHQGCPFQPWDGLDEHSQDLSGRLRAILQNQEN
T1 sequence (P31941 whole entry): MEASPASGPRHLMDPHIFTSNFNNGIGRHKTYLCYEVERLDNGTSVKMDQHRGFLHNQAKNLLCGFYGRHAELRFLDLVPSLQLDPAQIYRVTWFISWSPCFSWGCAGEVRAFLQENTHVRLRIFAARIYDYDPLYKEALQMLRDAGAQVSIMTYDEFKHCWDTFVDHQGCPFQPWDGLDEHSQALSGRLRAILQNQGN
Sequence of DNA (cytosine-5)-methyltransferase 1 (P26358 whole entry, the tested form may be a part): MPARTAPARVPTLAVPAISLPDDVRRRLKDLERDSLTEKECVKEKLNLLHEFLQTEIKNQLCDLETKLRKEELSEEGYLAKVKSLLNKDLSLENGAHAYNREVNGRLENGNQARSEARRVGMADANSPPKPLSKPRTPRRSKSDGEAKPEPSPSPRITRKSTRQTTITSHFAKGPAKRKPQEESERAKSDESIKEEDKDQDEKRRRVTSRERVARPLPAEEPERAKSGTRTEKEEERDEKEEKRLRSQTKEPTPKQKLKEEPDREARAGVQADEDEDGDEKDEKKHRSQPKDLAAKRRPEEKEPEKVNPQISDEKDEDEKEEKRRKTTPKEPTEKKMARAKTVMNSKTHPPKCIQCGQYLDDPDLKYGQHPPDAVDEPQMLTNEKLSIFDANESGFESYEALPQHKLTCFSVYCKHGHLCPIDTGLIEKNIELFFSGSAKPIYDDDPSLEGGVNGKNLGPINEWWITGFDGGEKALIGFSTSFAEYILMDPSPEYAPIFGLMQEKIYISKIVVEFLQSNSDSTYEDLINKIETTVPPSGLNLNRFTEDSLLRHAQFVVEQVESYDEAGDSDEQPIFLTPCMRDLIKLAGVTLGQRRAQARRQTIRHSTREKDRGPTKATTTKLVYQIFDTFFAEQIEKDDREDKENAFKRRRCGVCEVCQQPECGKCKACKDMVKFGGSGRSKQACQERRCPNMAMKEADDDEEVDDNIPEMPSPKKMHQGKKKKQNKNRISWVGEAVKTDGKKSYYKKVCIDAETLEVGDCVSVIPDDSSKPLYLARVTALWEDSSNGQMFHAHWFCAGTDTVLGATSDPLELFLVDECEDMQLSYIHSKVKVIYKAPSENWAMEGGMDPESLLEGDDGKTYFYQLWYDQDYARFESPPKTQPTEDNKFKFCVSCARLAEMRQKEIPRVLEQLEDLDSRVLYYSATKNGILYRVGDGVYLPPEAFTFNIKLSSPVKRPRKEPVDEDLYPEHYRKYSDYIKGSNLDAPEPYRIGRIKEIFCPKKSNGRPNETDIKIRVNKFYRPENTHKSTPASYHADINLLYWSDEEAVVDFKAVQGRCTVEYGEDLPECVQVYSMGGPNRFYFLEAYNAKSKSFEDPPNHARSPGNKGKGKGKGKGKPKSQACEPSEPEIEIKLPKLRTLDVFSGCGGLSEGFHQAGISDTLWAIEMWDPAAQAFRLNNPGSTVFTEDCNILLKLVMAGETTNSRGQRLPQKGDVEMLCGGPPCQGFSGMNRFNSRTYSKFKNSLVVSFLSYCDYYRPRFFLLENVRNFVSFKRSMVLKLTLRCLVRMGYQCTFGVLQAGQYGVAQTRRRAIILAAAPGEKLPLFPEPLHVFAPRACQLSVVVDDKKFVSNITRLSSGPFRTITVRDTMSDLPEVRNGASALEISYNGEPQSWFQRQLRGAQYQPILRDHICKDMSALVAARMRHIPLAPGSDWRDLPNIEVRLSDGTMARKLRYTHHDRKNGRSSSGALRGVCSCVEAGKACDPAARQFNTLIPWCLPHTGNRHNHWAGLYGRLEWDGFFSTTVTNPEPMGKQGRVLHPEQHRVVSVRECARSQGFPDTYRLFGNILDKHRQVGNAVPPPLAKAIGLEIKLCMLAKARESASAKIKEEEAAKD
Sequence of Melanocortin receptor 4 (P32245 whole entry): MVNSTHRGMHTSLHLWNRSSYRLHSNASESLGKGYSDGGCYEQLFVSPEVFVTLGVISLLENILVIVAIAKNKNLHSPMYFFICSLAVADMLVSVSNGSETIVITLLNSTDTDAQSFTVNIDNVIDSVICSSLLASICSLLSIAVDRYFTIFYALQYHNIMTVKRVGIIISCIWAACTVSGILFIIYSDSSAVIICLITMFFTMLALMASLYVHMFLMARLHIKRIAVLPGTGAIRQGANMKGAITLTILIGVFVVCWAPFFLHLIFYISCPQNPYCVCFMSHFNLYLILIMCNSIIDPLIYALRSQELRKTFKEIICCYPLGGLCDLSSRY

Compound: Cc1ccc(NC(=O)c2ccccc2OCC(=O)c2ccc(F)cc2)cc1
- EC50 (Melanocortin receptor 4): > 89.2 µM (inactive)

Compound: Nn1c(-c2cccc(Br)c2)n[nH]c1=S
- IC50 [1]: > 100 µM (inactive)
- IC50 [2]: > 99 µM (inactive)
- EC50 [3]: 108 µM (active)
- IC50 [4]: 539 nM (active)
- IC50 [5]: > 99 µM (inactive)
- IC50 [6]: 1.45 µM (active)
- IC50 [7]: 0.55 µM (active)

Compound: COc1ccc(OC)c(NC(=O)CC(C)S(=O)(=O)c2ccc3c(c2)CCN3C(C)=O)c1 (stereo unspecified)
- EC50 [8]: > 100 µM (inactive)

Compound: O=C1NN(c2ccccc2)C(=O)/C1=C/c1coc2ccccc2c1=O
- EC50 [9]: 44.7 µM (active)
- IC50 [10]: 5.3 µM (active)
- EC50 [11]: 14.5 µM (active)
- EC50 (H4): 13.4 µM (active)
- IC50 [12]: 1.27 µM (active)

Compound: CCn1ncc(-c2ccnc3cc(C(=O)O)nn23)c1C
- IC50 [2]: 10.7 µM (inactive)
- IC50 [13]: 3.82 µM (active)
- IC50 [4]: 93 µM (inactive) and 69.6 µM (inactive)
- IC50 [5]: 16.4 µM (inactive) and 24.7 µM (inactive)
- IC50 [14]: > 100 µM (inactive)
- IC50 [7]: > 99 µM (inactive)

Compound: CCc1ccc(/C(C)=N/NC(=O)CNC(=O)/C=C/c2ccco2)cc1
- IC50 [15]: 6.95 µM (active)
- IC50 [16]: 0.844 µM (active)
- IC50 [17]: 106 µM (active)

Compound: C=CCNc1nc(SC)nc2ccsc12
- IC50 [10]: 1.73 µM (active)
- IC50 [12]: 0.891 µM (active)

Compound: COC(=O)[C@@H]1COC(c2ccccc2C(F)(F)F)=N1
- EC50 [8]: > 100 µM (inactive)
